Holding throughout (assay type): cell-based, human
The subject of assay [1] is BT-549 Gal-3 H^64 cells. The assay is described as follows: Western blot analysis of PARP cleavage after cisplatin treatment. Particulars: galectin-3 H^64 cells, 50 μM cisplatin, 24, 48, 72 hours. How it is done:
(§1) FIGS. 4I and 4II show cisplatin induced apoptosis of BT-549 cells and cloned variants, FIG. 4I: % apoptosis in cells treated with 25 uM cisplatin for 72 hr at 37° C. and analyzed following MTT assay (ODs in the untreated control cells were calculated as 100%, and the values are the average of triplicate experiments, bars represent ±SD, *P>0.001), FIG. 4II: Western blot analysis of the expression of PARP in cells treated with 50 μM cisplatin after 24, 48, and 72 hours, IIA: BT-549; IIB: BT-549 Gal-3 H^64; IIC: BT-549 Gal-3 P^64 (β-Actin was used as loading control. 1—untreated; 2—24 hours; 3—48 hours; 4—72 hours), FIGS. 4IIIA-B and 4IIIA′-C′: Immunohistochemical analysis of intact and cleaved galectin-3 in breast cancer progression. To investigate the possible functional significance of this allelic variation, BT-549 stable cell clones over-expressing either Galectin-3 P^64 or H^64 variant after transfection, selection, and cloning of BT-549 galectin-3 null cells were generated. […] In parental and P64 clone, the apoptotic cells were 76.5±1.34% and 71.5±3.02% respectively (FIG. 4I). That the cells' death was due to apoptosis was confirmed by the cleavage of PARP. […] A-A′: normal breast tissue, B-B′: ductal hyperplasia, C-C′: infiltrating lobular carcinoma. Arrows in B′ and C′ indicate the cleaved protein, representative pictures are presented from a study of 5 normal breast tissues, 10 lobular hyperplasia, and 8 infiltrating lobular carcinoma cases. To determine if cell death is due to apoptosis, 1×10^6 cells were seeded in 100 mm Petri dishes. After 24 hours of serum starvation, the cells were incubated with […]. After 24, 48, 72 hours, the cells were trypsinized, lysed and equivalent number of cells (1×10^5) were subjected to SDS-PAGE and Western blot analysis with a 1:200 dilution of anti-poly (ADP-ribose) polymerase (PARP), mouse monoclonal antibody (BioMol, Plymouth Meeting, Pa.). Blots were also immuno-reacted with a 1:5000 dilution of anti-b-actin mouse monoclonal antibody to normalize for variation in protein loading. […]
(In western blotting, separated proteins are transferred to a membrane and probed.)

Assay [2] relates to BT-549 cells. The assay is described as above. Particulars: parental BT-549 cells, 50 μM cisplatin, 24, 48, 72 hours. As for the experimental part: as §1
For assay [3], the system named is BT-549 Gal-3 P^64 cells. The assay is described as above. Particulars: galectin-3 P^64 expressing cells, 50 μM cisplatin, 24, 48, 72 hours. How it is done: as §1
The subject of assay [4] is BT-549 Gal-3 H^64 cells. The assay is described as follows: Cisplatin induced apoptosis, MTT assay. Particulars: BT-549 cells expressing galectin-3 H^64 variant, 25 uM cisplatin, 72 hr, 37° C. As for the experimental part:
(§2) FIGS. 4I and 4II show cisplatin induced apoptosis of BT-549 cells and cloned variants, FIG. 4I: % apoptosis in cells treated with 25 uM cisplatin for 72 hr at 37° C. and analyzed following MTT assay (ODs in the untreated control cells were calculated as 100%, and the values are the average of triplicate experiments, bars represent ±SD, *P>0.001), FIG. 4II: Western blot analysis of the expression of PARP in cells treated with 50 μM cisplatin after 24, 48, and 72 hours, IIA: BT-549; IIB: BT-549 Gal-3 H^64; IIC: BT-549 Gal-3 P^64 (β-Actin was used as loading control. 1—untreated; 2—24 hours; 3—48 hours; 4—72 hours), FIGS. 4IIIA-B and 4IIIA′-C′: Immunohistochemical analysis of intact and cleaved galectin-3 in breast cancer progression. To investigate the possible functional significance of this allelic variation, BT-549 stable cell clones over-expressing either Galectin-3 P^64 or H^64 variant after transfection, selection, and cloning of BT-549 galectin-3 null cells were generated. […] In parental and P64 clone, the apoptotic cells were 76.5±1.34% and 71.5±3.02% respectively (FIG. 4I). That the cells' death was due to apoptosis was confirmed by the cleavage of PARP. […] A-A′: normal breast tissue, B-B′: ductal hyperplasia, C-C′: infiltrating lobular carcinoma. Arrows in B′ and C′ indicate the cleaved protein, representative pictures are presented from a study of 5 normal breast tissues, 10 lobular hyperplasia, and 8 infiltrating lobular carcinoma cases. 2500 BT-549, BT-549 Gal-3 H^64 and BT-549 Gal-3 P^64 cells were seeded per well in triplicates onto 24 well culture dishes. In one set of wells, 25 μM cisplatin (Sigma-Aldrich Inc., St. Louis, Mo.) was added after 24 hr of seeding, the other non-treated set served as a control. Cell viability/apoptosis was determined after 72 hours by the mitochondrial-dependent reduction of 3-(4,5-dimethylthiazol-2-yl)-2,5-diphenyltetrazolium bromide (MTT) (Sigma-Aldrich Inc., St. Louis, Mo.) to formazan.
For orientation: Tetrazolium dyes change colour on reduction, which living cells bring about.

Assay [5] has as its system BT-549 cells. The assay is described as follows: Cisplatin induced apoptosis, MTT assay. Particulars: parental BT-549 cells, 25 uM cisplatin, 72 hr, 37° C. As for the experimental part:
as §2

In assay [6] the test system is BT-549 Gal-3 P^64 cells. The assay is described as follows: Cisplatin induced apoptosis, MTT assay. Particulars: BT-549 galectin-3 P64 clone, 25 uM cisplatin, 72 hr, 37° C. How it is done:
as §2

In the case of `N.N.[Cl][Pt][Cl]` [cisplatin], the “PARP cleavage (85 kDa cleaved polypeptide)” value in the assay on BT-549 Gal-3 H^64 cells [1] is listed as “refractive to PARP cleavage”; in the assay with BT-549 cells [2] it was “showed the 85 kDa cleaved polypeptide of PARP”; in the assay on BT-549 Gal-3 P^64 cells [3], “showed the 85 kDa cleaved polypeptide of PARP”. The apoptotic cells worked out at 36.2±2.2% in the assay on BT-549 Gal-3 H^64 cells [4], 76.5±1.34% in the assay on BT-549 cells [5] and 71.5±3.02% in the assay on BT-549 Gal-3 P^64 cells [6].
